Earlier results, collected in patent US20240050950A1, “GRADIENT-BASED MICROFLUIDIC CIRCUIT, DEVICE, AND METHOD FOR PERFORMING AN ASSAY” (priority 2020, published 2024).
Counter-ions that a name gives are not always drawn. Like-named read-outs stand apart in the source and are kept apart here.

Details: cited from earlier work
[1] = Table 1, antimicrobial agents/drugs

## N[C@@H](C(=O)N[C@@H]1C(=O)N2C(C(=O)O)=C(Cl)CS[C@H]12)c1ccccc1 [Cefaclor]
[1]
  Molar volume: 226.4 ± 5.0 cm^3

## CC1=C(C(=O)O)N2C(=O)[C@@H](NC(=O)[C@H](N)c3ccccc3)[C@H]2SC1 [Cefalexin]
[1]
  Molar volume: 231.3 ± 5.0 cm^3

## CO[C@@]1(NC(=O)CSCC#N)C(=O)N2C(C(=O)O)=C(CSc3nnnn3C)CS[C@@H]21 [Cefmetazole]
[1]
  Molar volume: 268.3 ± 7.0 cm^3

## NC(=O)c1cc[n+](CC2=C(C(=O)O)N3C(=O)[C@@H](NC(=O)[C@@H](c4ccccc4)S(=O)(=O)[O-])[C@H]3SC2)cc1 [Cefsulodin (Ulfaret), Cefsulodin]
[1]
  Molar volume: 316.5 ± 7.0 cm^3

## CC(C)(O/N=C(\C(=O)N[C@@H]1C(=O)N2C(C(=O)[O-])=C(C[n+]3ccccc3)CS[C@H]12)c1csc(N)n1)C(=O)O [Ceftazidime]
[1]
  Molar volume: 330.2 ± 7.0 cm^3

## CO/N=C(\C(=O)N[C@@H]1C(=O)N2C(C(=O)O)=C(CSc3nc(=O)c(=O)[nH]n3C)CS[C@H]12)c1csc(N)n1 [Ceftriaxone]
[1]
  Molar volume: 281.7 ± 7.0 cm^3

## C/C=C(\C)C(=O)N[C@@H](c1ccccc1)[C@@H](O)C(=O)O[C@H]1C[C@@]2(O)[C@@H](OC(=O)c3ccccc3)[C@@H]3[C@]4(OC(C)=O)CO[C@@H]4C[C@H](O)[C@@]3(C)C(=O)[C@H](OC(C)=O)C(=C1C)C2(C)C [Cephalomannine (NSC 318735), Cephalomannine]
[1]
  Molar volume: 609.9 ± 5.0 cm^3

## CC(=O)OCC1=C(C(=O)O)N2C(=O)[C@@H](NC(=O)Cc3cccs3)[C@H]2SC1 [Cephalothin (Cefalotin), Cephalothin]
[1]
  Molar volume: 252.7 ± 5.0 cm^3

## CC1=C(C(=O)O)N2C(=O)[C@@H](NC(=O)[C@H](N)C3=CCC=CC3)[C@H]2SC1 [Cephradine (Cefradine), Cephradine]
[1]
  Molar volume: 237.2 ± 5.0 cm^3

## Cc1cc(Nc2ncc(Cl)c(Nc3ccccc3S(=O)(=O)C(C)C)n2)c(OC(C)C)cc1C1CCNCC1 [Ceritinib (Zykadia), Ceritinib]
Table 2, anticancer drugs
  Molar volume: 445.9 ± 3.0 cm^3

## COc1cccc2c1C(=O)c1c(O)c3c(c(O)c1C2=O)C[C@@](O)(C(C)=O)C[C@@H]3O[C@H]1C[C@H](N)[C@H](O)[C@H](C)O1 [Cerubidine (Daunorubicin Hydrochloride), Daunorubicin Hydrochloride]
Table 2, anticancer drugs
  Molar volume: 339.4 ± 5.0 cm^3

## C/C=C/C/C=C/CCC(=O)[C@H]1O[C@H]1C(N)=O [Cerulenin]
[1]
  Molar volume: 196.7 ± 3.0 cm^3

## O=C(O)CCCc1ccc(N(CCCl)CCCl)cc1 [Chlorambucil]
Table 2, anticancer drugs
  Molar volume: 243.6 ± 3.0 cm^3

## [H]/N=C(\N/C(=N/[H])NCCCCCCNC(=N)NC(=N)Nc1ccc(Cl)cc1)Nc1ccc(Cl)cc1 [Chlorhexidine]
[1]
  Molar volume: 363.3 ± 7.0 cm^3

## CO[C@@H]1[C@H](O)C[C@@H](O[C@@H]2C[C@H](Oc3cc4cc5c(c(O)c4c(O)c3C)C(=O)[C@@H](O[C@H]3C[C@@H](O[C@H]4C[C@@H](O[C@H]6C[C@](C)(O)[C@@H](OC(C)=O)[C@H](C)O6)[C@H](O)[C@@H](C)O4)[C@H](O)[C@@H](C)O3)[C@H]([C@H](OC)C(=O)[C@@H](O)[C@@H](C)O)C5)O[C@H](C)[C@@H]2OC(C)=O)O[C@@H]1C [Chromomycin A3]
[1]
  Molar volume: 827.2 ± 5.0 cm^3

## C=Cc1cc(OC)c2c(c1)c(=O)oc1c2cc(OC)c2c(O)ccc([C@H]3O[C@@H](C)[C@@H](O)[C@](C)(O)[C@@H]3O)c21 [Chrysomycin A (MFCD07370133), Chrysomycin A]
[1]
  Molar volume: 361.7 ± 3.0 cm^3

## COc1cc2c(oc(=O)c3cc(C)cc(OC)c32)c2c([C@@H]3O[C@H](C)[C@H](O)[C@@](C)(O)[C@H]3O)ccc(O)c12 [Chrysomycin B (MFCD07370132), Chrysomycin B]
[1]
  Molar volume: 352.0 ± 3.0 cm^3

## Nc1nc(Cl)nc2c1ncn2[C@H]1C[C@H](O)[C@@H](CO)O1 [Cladribine]
Table 2, anticancer drugs
  Molar volume: 140.1 ± 7.0 cm^3

## CC[C@H]1OC(=O)[C@H](C)[C@@H](O[C@H]2C[C@@](C)(OC)[C@@H](O)[C@H](C)O2)[C@H](C)[C@@H](O[C@@H]2O[C@H](C)C[C@H](N(C)C)[C@H]2O)[C@](C)(OC)C[C@@H](C)C(=O)[C@H](C)[C@@H](O)[C@]1(C)O [Clarithromycin]
[1]
  Molar volume: 631.9 ± 5.0 cm^3

## Nc1nc(Cl)nc2c1ncn2[C@@H]1O[C@H](CO)[C@@H](O)[C@@H]1F [Clofarabine]
Table 2, anticancer drugs
  Molar volume: 143.0 ± 7.0 cm^3

## CC(C)/N=c1\cc2n(-c3ccc(Cl)cc3)c3ccccc3nc-2cc1Nc1ccc(Cl)cc1 [Clofazimine]
[1]
  Molar volume: 366.0 ± 7.0 cm^3

## Clc1ccccc1C(c1ccccc1)(c1ccccc1)n1ccnc1 [Clotrimazole]
[1]
  Molar volume: 302.7 ± 7.0 cm^3

## O=C(c1ccc(F)c(F)c1Nc1ccc(I)cc1F)N1CC(O)([C@@H]2CCCCN2)C1 [Cobimetinib]
Table 2, anticancer drugs
  Molar volume: 311.3 ± 3.0 cm^3

## C/C=C/[C@H]1O[C@@](O)([C@@H](C)[C@H](O)[C@H](C)[C@H]2OC(=O)/C(OC)=C/C(C)=C/[C@@H](C)[C@@H](O)[C@@H](CC)[C@@H](O)[C@H](C)C/C(C)=C/C=C/[C@@H]2OC)C[C@@H](O[C@H]2C[C@@H](O)[C@H](OC(N)=O)[C@@H](C)O2)[C@@H]1C [Concanamycin A (Folimycin), Concanamycin A]
[1]
  Molar volume: 703.1 ± 7.0 cm^3

## Nc1ncnc2c1ncn2[C@@H]1O[C@H](CO)C[C@H]1O [Cordycepin (3′-Deoxyadenosine), 3′-Deoxyadenosine]
[1]
  Molar volume: 130.8 ± 7.0 cm^3

## CO[C@H]1[C@H](OC(=O)c2ccc(C)[nH]2)[C@H](O)[C@@H](Oc2ccc3c(O)c(NC(=O)c4c[nH]c(C(=O)Nc5c(O)c6ccc(O[C@H]7OC(C)(C)[C@@H](OC)[C@H](OC(=O)c8ccc(C)[nH]8)[C@@H]7O)c(C)c6oc5=O)c4C)c(=O)oc3c2C)OC1(C)C [Coumermycin Al, Coumermycin A1]
[1]
  Molar volume: 718.6 ± 5.0 cm^3

## C[C@@H](Oc1cc(-c2cnn(C3CCNCC3)c2)cnc1N)c1c(Cl)ccc(F)c1Cl [Crizotinib (Xalkori), Crizotinib]
Table 2, anticancer drugs
  Molar volume: 305.2 ± 7.0 cm^3

## Nc1ccn([C@@H]2O[C@H](CO)[C@@H](O)[C@@H]2O)c(=O)n1 [Cytarabine (Tarabine PFS), Cytarabine]
Table 2, anticancer drugs
  Molar volume: 128.4 ± 7.0 cm^3

## C=C1[C@@H](C)[C@H]2[C@H](Cc3ccccc3)NC(=O)[C@]23OC(=O)/C=C/[C@H](O)CCC[C@@H](C)C/C=C/[C@H]3[C@@H]1O [Cytochalasin B (Phomin), Cytochalasin B]
[1]
  Molar volume: 396.8 ± 5.0 cm^3

## C=C1[C@@H](C)[C@H]2[C@H](Cc3ccccc3)NC(=O)[C@]23[C@H](OC(C)=O)/C=C/[C@@](C)(O)C(=O)[C@@H](C)C/C=C/[C@H]3[C@@H]1O [Cytochalasin D (Zygosporin A, 1632828), Cytochalasin D]
[1]
  Molar volume: 410.0 ± 5.0 cm^3

## N[C@@H]1CONC1=O [D-Cycloserine]
[1]
  Molar volume: 79.8 ± 3.0 cm^3

## CC1(C)S[C@@H]2[C@H](NC(=O)[C@H](NC(=O)N3CCNC3=O)c3ccccc3)C(=O)N2[C@H]1C(=O)O [D-α-([Imidazolidin-2-on-1-yl]carbonylamino)benzylpenicillin]
[1]
  Molar volume: 296.6 ± 5.0 cm^3

## CC(C)(C)c1nc(-c2cccc(NS(=O)(=O)c3c(F)cccc3F)c2F)c(-c2ccnc(N)n2)s1 [Dabrafenib (Tafinlar), Dabrafenib]
Table 2, anticancer drugs
  Molar volume: 359.8 ± 3.0 cm^3

## COc1cc2ncnc(Nc3ccc(F)c(Cl)c3)c2cc1NC(=O)/C=C/CN1CCCCC1 [Dacomitinib (Vizimpro), Dacomitinib]
Table 2, anticancer drugs
  Molar volume: 349.4 ± 3.0 cm^3
